In US8431596B2 (Cancer Research Technology Limited, priority 2007, dated 2013) one finds IC50 data, which are given here for 39 molecules.

A value given as a limit tells only on which side of the number the result lay.

For this experiment, the target named is T1, AXL (human catalytic domain) (Homo sapiens, UniProt P30530).
T1 construct: purchased Upstate Ltd. 14-512
T1 sequence (P30530 473-894): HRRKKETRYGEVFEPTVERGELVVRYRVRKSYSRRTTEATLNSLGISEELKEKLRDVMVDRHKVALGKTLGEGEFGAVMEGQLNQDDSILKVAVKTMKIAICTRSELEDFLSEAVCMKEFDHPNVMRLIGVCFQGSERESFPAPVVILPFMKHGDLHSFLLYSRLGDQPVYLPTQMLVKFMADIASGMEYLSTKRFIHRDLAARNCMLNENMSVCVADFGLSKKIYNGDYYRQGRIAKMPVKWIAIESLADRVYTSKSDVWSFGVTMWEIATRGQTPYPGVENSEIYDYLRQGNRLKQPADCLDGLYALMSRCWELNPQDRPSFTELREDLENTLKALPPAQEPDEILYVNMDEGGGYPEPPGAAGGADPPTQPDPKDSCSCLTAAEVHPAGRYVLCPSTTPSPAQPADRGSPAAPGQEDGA
The experiment in a line: AXL (human catalytic domain) Enzyme Activity Assay (IMAP fluorescence polarisation). It is filed as biochemical. The method, boiled down:
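Recombinant human AXL isoform 1 (aa473-894; final 15 nM) phosphorylated 100 nM fluorescein-CSK-tide with 150 μM ATP (KM) in HEPES pH 7.0/MgCl2/DTT buffer for 60 min at room temperature. IMAP fluorescence polarisation read after overnight binding; IC50 from 10-point 4-parameter logistic fits.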
For orientation: Polarisation of emitted light reports the rotation of a fluorescent probe.

Setting [1] is: first data set, recombinant AXL isoform 1 aa473-894, 150 μM ATP.
Where [2] appears, read: further data set (WW-001 through WW-169, XX-001 through XX-469, YY-001 through YY-016, ZZ-001 through ZZ-003), 150 μM ATP.

`O=C(Nc1nc2cccc(-c3ccc(N4CCNCC4)cc3)n2n1)C1CC1` [WW-151, Cyclopropanecarboxylic acid [5-(4-piperazin-1-yl-phenyl)-[1,2,4]triazolo[1,5-a]pyridin-2-yl]-amide]: the IC50 (usually the concentration that inhibits the measured activity by half) by setting is: under setting [1], 1 to 10 µM; under setting [2], 1 to 10 µM.
For `CC(C)Oc1cccc(-c2cccc3nc(NC(=O)C4CC4)nn23)c1` [WW-152], the half-inhibitory concentration (IC50) fell in the range of 1 to 10 µM under setting [1] and 1 to 10 µM under setting [2].
In the case of `CCN(CC)CCNc1ccc(-c2cccc3nc(NC(=O)C4CC4)nn23)cc1` [WW-153, Cyclopropanecarboxylic acid {5-[4-(2-diethylamino-ethylamino)-phenyl]-[1,2,4]triazolo[1,5-a]pyridin-2-yl}-amide], the IC50 is, setting by setting: under setting [1], 1 to 10 µM; under setting [2], 1 to 10 µM.
With `NCC(=O)Nc1ccc(-c2cccc3nc(NC(=O)C4CC4)nn23)cc1` [WW-155, Cyclopropanecarboxylic acid {5-[4-(2-amino-acetylamino)-phenyl]-[1,2,4]triazolo[1,5-a]pyridin-2-yl}-amide], the IC50 by setting is: under setting [1], 1 to 10 µM; under setting [2], 1 to 10 µM.
Turning to `O=C(Nc1nc2cccc(-c3ccc(NS(=O)(=O)c4ccccc4)cc3)n2n1)C1CC1` [WW-156], the IC50 runs as follows: under setting [1], 1 to 10 µM; under setting [2], 1 to 10 µM.
As for `NCCCNc1ccc(-c2cccc3nc(NC(=O)C4CC4)nn23)cc1` [WW-157], the 50% inhibitory concentration (IC50) reads like this: under setting [1], 1 to 10 µM; under setting [2], 1 to 10 µM.
On to `NCCNc1ccc(-c2cccc3nc(NC(=O)C4CC4)nn23)cc1` [WW-158, Cyclopropanecarboxylic acid {5-[4-(2-amino-ethylamino)-phenyl]-[1,2,4]triazolo[1,5-a]pyridin-2-yl}-amide], for which the IC50 lay within 1 to 10 µM under setting [1] and 1 to 10 µM under setting [2].
As to `O=C(Nc1nc2cccc(-c3ccc4c(c3)CCO4)n2n1)C1CC1` [WW-159], the half-inhibitory concentration (IC50) is less than 1 µM under setting [1] and 0.1 to 1 µM under setting [2].
As for `COc1cccc(Nc2cccc3nc(NC(=O)C4CC4)nn23)c1` [WW-160], the concentration for half-maximal inhibition (IC50) by setting is: under setting [1], 1 to 10 µM; under setting [2], 1 to 10 µM.
On to `COc1cc(Nc2cccc3nc(NC(=O)C4CC4)nn23)cc(OC)c1OC` [WW-161], for which the IC50 lay within 1 to 10 µM under setting [1] and 1 to 10 µM under setting [2].
As for `O=C(Nc1nc2cccc(-c3ccc(Oc4ccccc4)cc3)n2n1)C1CC1` [WW-162], the IC50 by setting is: under setting [1], 1 to 10 µM; under setting [2], 1 to 10 µM.
`COc1ccc(CNc2cccc3nc(NC(=O)C4CC4)nn23)cc1` [WW-167]: the concentration for half-maximal inhibition (IC50) under setting [1] was in the range of 1 to 10 µM and the half-inhibitory concentration (IC50) under setting [2] lay in the range of 1 to 10 µM.
`CN1CCN(CCC(=O)Nc2nc3cccc(-c4ccc5c(c4)OCCO5)n3n2)CC1` [WW-169] yielded an IC50 under setting [2] of 1 to 10 µM.
With `COc1cc(Nc2nc3cccc(-c4ccc5c(c4)OCCO5)n3n2)ccc1OCCN1CCCC1` [XX-001], the IC50 runs as follows: under setting [1], less than 1 µM; under setting [2], not above 0.1 µM.
The corresponding values for `CN(C)CCNC(=O)c1cccc(Nc2nc3cccc(-c4ccc5c(c4)OCO5)n3n2)c1` [XX-002] are less than 1 µM and 0.1 to 1 µM.
The like results for `COc1ccc(-c2cccc3nc(NCC4CC4)nn23)cc1` [XX-003, Cyclopropylmethyl-[5-(4-methoxy-phenyl)-[1,2,4]triazolo[1,5-a]pyridin-2-yl]-amine] were, in that order, 1 to 10 µM and 0.1 to 1 µM.
With `COc1ccc(-c2cccc3nc(Nc4ccc(OCCN5CCCC5)cc4)nn23)cc1` [XX-004], the IC50 runs as follows: under setting [1], less than 1 µM; under setting [2], 1 to 10 µM.
The like results for `COc1ccc(-c2cccc3nc(Nc4ccc(OCCN5CCOCC5)cc4)nn23)cc1` [XX-005] were, in that order, less than 1 µM and not above 0.1 µM.
Regarding `COc1ccc(-c2cccc3nc(Nc4ccc(OCCN(C)C)cc4)nn23)cc1` [XX-006], the IC50 under setting [1] is less than 1 µM and the IC50 under setting [2] lay within 0.1 to 1 µM.
The like results for `COc1ccc(-c2cccc3nc(Nc4ccc(N)cc4)nn23)cc1` [XX-007] were, in that order, less than 1 µM and not above 0.1 µM.
For `COc1ccc(-c2cccc3nc(Nc4cccc(C(C)=O)c4)nn23)cc1` [XX-008], the half-inhibitory concentration (IC50) under setting [2] was in the range of 0.1 to 1 µM.
On to `COc1ccc(-c2cccc3nc(Nc4ccc(OC)nc4)nn23)cc1` [XX-010], for which the half-inhibitory concentration (IC50) under setting [1] lay within 1 to 10 µM.
For the molecule `COc1ccc(-c2cccc3nc(Nc4ccc(OCCO)cc4)nn23)cc1` [XX-011, 2-{4-[5-(4-methoxy-phenyl)-[1,2,4]triazolo[1,5-a]pyridin-2-ylamino]-phenoxy}-ethanol], the concentration for half-maximal inhibition (IC50) under setting [1] is less than 1 µM and the IC50 under setting [2] lay within 1 to 10 µM.
The like results for `CC(C)Oc1ccc(-c2cccc3nc(Nc4ccc(OCCN5CCCC5)cc4)nn23)cc1` [XX-012] were, in that order, less than 1 µM and 0.1 to 1 µM.
The like results for `COc1ccc(-c2cccc3nc(Nc4ccc5c(c4)OCCN5C)nn23)cc1` [XX-013] were, in that order, less than 1 µM and 0.1 to 1 µM.
The corresponding values for `COc1ccc(-c2cccc3nc(Nc4cccc(OCCN5CCOCC5)c4)nn23)cc1` [XX-014] are less than 1 µM and 0.1 to 1 µM.
With `COc1ccc(-c2cccc3nc(Nc4cccc(OCCn5ccnc5)c4)nn23)cc1` [XX-015, [3-(2-Imidazol-1-yl-ethoxy)-phenyl]-[5-(4-methoxy-phenyl)-[1,2,4]triazolo[1,5-a]pyridin-2-yl]-amine], the IC50 under setting [1] is less than 1 µM and the IC50 under setting [2] was in the range of 0.1 to 1 µM.
The corresponding values for `COc1ccc(-c2cccc3nc(Nc4ccc(OCCn5ccnc5)cc4)nn23)cc1` [XX-016] are less than 1 µM and 0.1 to 1 µM.
The corresponding values for `Cn1cc(-c2cccc3nc(Nc4ccc(OCCN5CCCC5)cc4)nn23)cn1` [XX-017] are less than 1 µM and 0.1 to 1 µM.
The like results for `c1cc(-c2ccc3c(c2)OCCO3)n2nc(Nc3ccc(OCCN4CCCC4)cc3)nc2c1` [XX-018] were, in that order, less than 1 µM and 0.1 to 1 µM.
In the case of `COc1ccc(-c2cccc3nc(Nc4ccc(OCCN5CCCCC5)cc4)nn23)cc1` [XX-019], the concentration for half-maximal inhibition (IC50) by setting is: under setting [1], less than 1 µM; under setting [2], not above 0.1 µM.
The like results for `c1cc(-c2ccc3occc3c2)n2nc(Nc3ccc(OCCN4CCCC4)cc3)nc2c1` [XX-020] were, in that order, less than 1 µM and not above 0.1 µM.
Turning to `c1cc(-c2ccc3c(c2)OCO3)n2nc(Nc3ccc(OCCN4CCCC4)cc3)nc2c1` [XX-021], the IC50 was less than 1 µM under setting [1] and not above 0.1 µM under setting [2].
The corresponding values for `CNCCOc1ccc(Nc2nc3cccc(-c4ccc(OC)cc4)n3n2)cc1` [XX-022] are less than 1 µM and 0.1 to 1 µM.
The like results for `COc1ccc(-c2cccc3nc(Nc4ccc(N5CCNCC5)cc4)nn23)cc1` [XX-023, [5-(4-Methoxy-phenyl)-[1,2,4]triazolo[1,5-a]pyridin-2-yl]-(4-piperazin-1-yl-phenyl)-amine] were, in that order, less than 1 µM and not above 0.1 µM.
The corresponding values for `COc1ccc(-c2cccc3nc(Nc4ccc(N5CCOCC5)cc4)nn23)cc1` [XX-024] are 1 to 10 µM and not above 0.1 µM.
`COc1ccc(-c2cccc3nc(Nc4ccc(OCCNCCO)cc4)nn23)cc1` [XX-026]: the IC50 is less than 1 µM under setting [1] and 0.1 to 1 µM under setting [2].
The corresponding values for `COc1ccc(-c2cccc3nc(Nc4ccc(OCCNCCN(C)C)cc4)nn23)cc1` [XX-027] are less than 1 µM and 0.1 to 1 µM.
The corresponding values for `COc1ccc(-c2cccc3nc(Nc4ccc(OCCNc5ccncc5)cc4)nn23)cc1` [XX-028] are less than 1 µM and 0.1 to 1 µM.
